According to Sander's compilation of Henry's law constants (doi:10.1093/jxb/48.5.1095):

Experiment: Henry solubility constant Hcp at 298.15 K (mol/(m3 Pa))
Conditions: reference: Merk and Riederer (1997)

Row | Structure (SMILES) | Henry solubility constant Hcp
1 | CCCCCCO [1-hexanol] | 0.58
2 | CCCCCO [1-pentanol] | 0.77
3 | CCCO [1-propanol] | 1.5
4 | CCCCC(C)O (stereo not given) [2-hexanol] | 0.48
5 | CCC(C)(C)O [2-methyl-2-butanol] | 0.7
6 | CCCC(C)O (stereo not given) [2-pentanol] | 0.66
7 | CCO [ethanol] | 1.9

Continued, values first:

Row | Henry solubility constant Hcp | Structure (SMILES)
8 | 0.83 | CCC(C)O (stereo not given) [2-butanol]
9 | 0.78 | CC(C)CO [2-methyl-1-propanol]
10 | 1.2 | CC(C)O [2-propanol]
